Experimental data from article PMC11509018, “Evaluation of the Role of Tanshinone I in an In Vitro System of Charcot-Marie-Tooth Disease Type 2N” (International Journal of Molecular Sciences, 2024).

Molecular target: T1, AlaRS E337K binding to Nrp1 (Homo sapiens, UniProt P49588, E337K)
T1 construct: expressed in transfected cells
T1 sequence (P49588 1-968 E337K): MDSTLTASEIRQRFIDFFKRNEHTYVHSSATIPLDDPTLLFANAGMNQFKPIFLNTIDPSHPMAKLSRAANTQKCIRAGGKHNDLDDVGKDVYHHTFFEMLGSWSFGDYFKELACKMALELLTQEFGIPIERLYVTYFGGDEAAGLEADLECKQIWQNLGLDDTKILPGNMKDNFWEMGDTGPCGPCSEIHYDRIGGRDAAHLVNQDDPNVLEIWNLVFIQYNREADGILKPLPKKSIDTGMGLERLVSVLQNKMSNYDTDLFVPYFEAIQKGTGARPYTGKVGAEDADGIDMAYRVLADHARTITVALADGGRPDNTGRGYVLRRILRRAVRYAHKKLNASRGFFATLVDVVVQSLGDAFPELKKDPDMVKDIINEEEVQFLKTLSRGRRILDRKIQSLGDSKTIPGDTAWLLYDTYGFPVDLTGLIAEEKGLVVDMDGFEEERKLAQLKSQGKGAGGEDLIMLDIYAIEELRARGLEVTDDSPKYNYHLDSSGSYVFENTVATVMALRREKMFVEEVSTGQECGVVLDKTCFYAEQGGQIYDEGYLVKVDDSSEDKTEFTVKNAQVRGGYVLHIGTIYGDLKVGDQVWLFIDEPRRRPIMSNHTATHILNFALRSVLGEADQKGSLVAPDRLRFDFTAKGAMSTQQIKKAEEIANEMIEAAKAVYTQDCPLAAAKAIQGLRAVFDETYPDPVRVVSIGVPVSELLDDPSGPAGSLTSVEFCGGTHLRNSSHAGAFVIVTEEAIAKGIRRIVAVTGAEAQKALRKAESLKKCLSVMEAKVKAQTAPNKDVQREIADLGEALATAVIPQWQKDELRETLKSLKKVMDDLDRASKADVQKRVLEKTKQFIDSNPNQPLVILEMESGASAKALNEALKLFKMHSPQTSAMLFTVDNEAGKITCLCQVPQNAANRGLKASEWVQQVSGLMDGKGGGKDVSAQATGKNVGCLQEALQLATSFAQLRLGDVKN
Test: Co-IP of HA-AlaRS mutant with Nrp1 in transfected cells
Format: cell-based
Conditions: 20 µM Tanshinone I for 24 h, ImageJ, average of three repeats
Procedure: To further investigate whether Tanshinone I-induced conformational changes in AlaRS CMT mutants affect their interaction with Nrp1, Co-IP experiments were performed in cells treated with Tanshinone I. By comparing Co-IP results obtained before and after treatment, we assessed the influence of the drug on the binding strength and mode between the AlaRS CMT mutants and Nrp1. […] To confirm the direct effect of Tanshinone I on the interaction between AlaRS CMT mutants and Nrp1, pull-down experiments were performed. […] Given that the interaction between AlaRS mutants and Nrp1 is associated with disease progression in CMT, the ability of Tanshinone I to disrupt this binding highlights its potential to intervene in the pathogenic mechanisms of these diseases.
Figure 7 The impact of Tanshinone I on the interaction between AlaRS mutants and Nrp1. (A) Co-IP assays were conducted to assess the binding between HA-AlaRS mutants and Nrp1, both with and without treatment with 20 µM Tanshinone I for 24 h. […] (C) Pull down assay was performed to detect the binding between AlaRS mutants and GST-Nrp1 b1 with or without 20 µM Tanshinone I. (D) Relative quantification statistics of the AlaRS mutants pulled down from the GST pull down experiments after Tanshinone I treatment were performed using ImageJ. (E) The cell viability of 293T and NSC34 cells treated with different concentrations of Tanshinone I was assessed using the CCK-8 assay over a 24 h period. TEXT PRINTED IN THE PICTURE: (B) Tanshinone I: Mean density band (N71Y): 0.60; Mean density band (G102R): 0.53; Mean density band (R326W): 0.50; Mean density band (R329H): 0.50; Mean density band (E337K): 0.62 | (D) Tanshinone I: Mean density band (N71Y): 0.82; Mean density band (G102R): 0.76; Mean density band (R326W): 0.84; Mean density band (R329H): 0.84; Mean density band (E337K): 0.90
Total protein was extracted from cells using RIPA buffer (50 mM Tris-HCl pH 7.4, 150 mM NaCl, 1% NP40, 1 mM EDTA) supplemented with a protease and phosphatase inhibitor cocktail (Roche, Basel, Switzerland). After SDS-PAGE, the protein on the gel was transferred to a PVDF membrane (Bio-Rad, Hercules, CA, USA) and then blocked with 5% non-fat dry milk in TBST for 1 h. Then, the membranes were incubated with the indicated primary antibodies and corresponding HRP-conjugated secondary antibodies. Signals were detected using the Bio-Rad ChemiDoc system (Bio-Rad, Shanghai, China). The following antibodies were used: Flag (Ray antibody biotech, Beijing, China, 1:3000), HA (Ray antibody biotech, Beijing, China, 1:3000), and GAPDH (Ray antibody biotech, Beijing, China, 1:5000).
To detect the binding of Nrp1 and AlaRS mutants in cells, whole-cell lysates (500 μg) were treated overnight with 2 μg of anti-Flag antibody in RIPA buffer. Next, Protein A/G agarose beads (#sc-2003, Santa Cruz Biotechnology, Santa Cruz, CA, USA) were applied to the lysates and the samples were further treated for 8–12 h with rotation. Samples were washed three times with RIPA buffer. Subsequently, the immunoprecipitations were resuspended into 2 × SDS-loading buffer. The samples were then boiled for 10 min and detected using Western blot. The experiment was repeated three times.

Cc1coc2c1C(=O)C(=O)c1c-2ccc2c(C)cccc12 [Tanshinone I]
Mean density band (E337K), relative quantification of AlaRS mutant immunoprecipitated: 0.62
